Reference: patent US7034028B2, “Treatment of inflammatory disorders” (Arakis Ltd., priority 2000, dated 2006)
pIC50: −log10 of the molar value. Like-named read-outs stand apart in the source and are kept apart here.

How the values were obtained:
[1] = tested on: bovine nasal cartilage; assay: Ex vivo IL-2-stimulated bovine nasal cartilage destruction model; type: cell-based; set-up: Inhibition of IL-2-stimulated bovine nasal cartilage destruction: unit not given here; settings: for inhibition at 1 µM / inhibition at 10 µM / inhibition at 100 µM: Bos taurus, read-out: Inhibition of IL-2-stimulated bovine nasal cartilage destruction
[2] = tested on: IL-2; assay: Cytokine inhibition profile: IL-2; type: cell-based; settings: read-out: Inhibition Profile (IC50) IL-2
[3] = tested on: T-cell proliferation; assay: T-cell (lymphocyte) proliferation inhibition; type: cell-based, human
[4] = tested on: IL-6; assay: Cytokine inhibition profile: IL-6; type: cell-based; settings: read-out: Inhibition Profile (IC50) IL-6
[5] = tested on: Interleukin-8 (IL-8); assay: Cytokine inhibition profile: IL-8; type: cell-based
[6] = tested on: IL-1; assay: Cytokine inhibition profile: IL-1; type: cell-based; settings: read-out: Inhibition Profile (IC50) IL-1
[7] = tested on: TNF; assay: Cytokine inhibition profile: TNF; type: cell-based; settings: read-out: Inhibition Profile (IC50) TNF
[8] = tested on: IFN gamma; assay: Cytokine inhibition profile: IFN gamma; type: cell-based; settings: read-out: Inhibition Profile (IC50) IFN gamma
[9] = read-out: Inhibition Profile (IC50) T-cell proliferation

Inhibition Profile (IC50) IL-8 [5] | SMILES | Inhibition of IL-2-stimulated bovine nasal cartilage destruction ([1]; 10 μM) | Inhibition of IL-2-stimulated bovine nasal cartilage destruction ([1]; 1 μM) | Inhibition of IL-2-stimulated bovine nasal cartilage destruction ([1]; 100 μM) | pIC50 [2] | pIC50 [3, 9] | pIC50 [4] | pIC50 [5] | pIC50 [6] | pIC50 [7] | pIC50 [8] | other results
– | OC(c1cc(C(F)(F)F)nc2c(C(F)(F)F)cccc12)C1CCCCN1 (racemic) [(+/−) Mefloquine, mefloquine] | 20 | – | – | – | – | – | – | – | – | – | –
– | OC(c1cc(C(F)(F)F)nc2c(C(F)(F)F)cccc12)C1CCCCN1 (single isomer, unassigned; (-)) [(−)Mefloquine] | 45 | 37 | 82 | 4.77 | 5.00 | 4.37 | 4.20 | 4.10 | 4.74 | 4.74 | –
– | O[C@H](c1cc(C(F)(F)F)nc2c(C(F)(F)F)cccc12)[C@@H]1CCCCN1 [(+)Mefloquine, (+)-Erythro-mefloquine] | 44 | 32 | 71 | 4.77 | 4.96 | 4.28 | 4.39 | 4.17 | 4.62 | 4.77 | Suppression of human lymphocyte proliferation, in words [3]: suppresses
Inactive | CCN(CC)CCCC(C)Nc1ccnc2cc(Cl)ccc12 (stereo not shown) [Chloroquine, chloroquine] | – | – | – | 4.18 | – | 4.09 | – | 5.20 | 4.68 | 4.20 | inhibition at 1 µM [1]: 3%; inhibition at 10 µM [1]: 6%; inhibition at 100 µM [1]: 35%; pIC50 ([3]; Homo sapiens, T-cell, read-out: Inhibition Profile (IC50) T-cell proliferation): 4.89
Inactive | CCN(CCO)CCCC(C)Nc1ccnc2cc(Cl)ccc12 (stereo not shown) [Hydroxychloroquine, hydroxychloroquine] | – | – | – | 4.03 | – | 4.05 | – | 4.68 | 4.49 | 4.03 | inhibition at 1 µM ([1]; 1 μM): 4%; inhibition at 10 µM ([1]; 10 μM): 3%; inhibition at 100 µM ([1]; 100 μM): 36%; pIC50 ([3]; Homo sapiens, T-cell; read-out: Inhibition Profile (IC50) T-cell proliferation): 4.80; Activity against Interleukin-8 (IL-8), in words [5]: inactive
